pIC50: −log10 of the molar value. ≈ marks a conversion by molar mass, not a printed value. Calls of active or inactive are those of the source. The calls are words filed in the database; no cut-off is given here.
Legend:
[1] = target: T1, 1-deoxy-D-xylulose 5-phosphate reductoisomerase (Mycobacterium tuberculosis, UniProt P9WNS1); assay: Inhibition of recombinant Mycobacterium tuberculosis Dxr expressed in Escherichia coli BL21 CodonPlus (DE3)-RIL cells using DOXP as substrate assessed as NADPH oxidation by spectrophotometric analysis
T1 sequence (P9WNS1 whole entry): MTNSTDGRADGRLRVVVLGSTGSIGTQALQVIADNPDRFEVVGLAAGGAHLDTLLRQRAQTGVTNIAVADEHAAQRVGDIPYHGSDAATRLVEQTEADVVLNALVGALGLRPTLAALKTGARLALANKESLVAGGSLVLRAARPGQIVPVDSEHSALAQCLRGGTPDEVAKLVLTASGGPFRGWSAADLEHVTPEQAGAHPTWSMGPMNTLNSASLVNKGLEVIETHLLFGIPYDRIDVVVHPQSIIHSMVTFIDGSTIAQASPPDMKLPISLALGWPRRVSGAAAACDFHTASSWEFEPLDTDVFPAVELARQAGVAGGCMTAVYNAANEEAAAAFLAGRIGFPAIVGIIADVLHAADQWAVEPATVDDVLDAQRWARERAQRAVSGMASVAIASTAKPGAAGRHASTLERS

[2] = target: T2, 1-deoxy-D-xylulose 5-phosphate reductoisomerase (Escherichia coli, UniProt W8T2T2); assay: Inhibition of recombinant Escherichia coli Dxr expressed in Escherichia coli BL21 CodonPlus (DE3)-RIL cells using DOXP as substrate assessed as NADPH oxidation preincubated for 5 mins with NADPH followed by substrate addition by spectrophotometric analysis
T2 sequence (W8T2T2 whole entry): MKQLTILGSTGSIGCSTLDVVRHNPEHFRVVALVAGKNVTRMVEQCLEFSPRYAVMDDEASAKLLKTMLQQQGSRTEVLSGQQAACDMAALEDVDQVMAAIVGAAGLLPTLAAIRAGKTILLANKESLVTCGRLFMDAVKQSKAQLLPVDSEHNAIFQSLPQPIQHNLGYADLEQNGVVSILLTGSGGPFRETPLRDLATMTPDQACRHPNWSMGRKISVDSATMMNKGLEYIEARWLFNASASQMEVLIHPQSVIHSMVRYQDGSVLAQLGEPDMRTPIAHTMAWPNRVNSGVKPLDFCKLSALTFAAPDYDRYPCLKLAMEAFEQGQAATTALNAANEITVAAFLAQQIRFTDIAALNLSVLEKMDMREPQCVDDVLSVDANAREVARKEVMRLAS

Plasmodium falciparum [3] = assay: Schizontocidal activity against Plasmodium falciparum K1 infected in human RBC after 72 hrs by Malstat reagent-based spectrophotometric analysis; format: functional; conditions: K1, 72 h
[4] = Inhibition of recombinant Plasmodium falciparum Dxr expressed in Escherichia coli C43(DE3) using DOXP as substrate assessed as NADPH oxidation by spectrophotometric analysis
Escherichia coli [5] = assay: Antibacterial activity against Escherichia coli ATCC 8739 by two-fold broth microdilution method; format: functional
Escherichia coli [6] = assay: Antibacterial activity against Escherichia coli ATCC 25922 by two-fold broth microdilution method; format: functional
Escherichia coli [7] = assay: Antibacterial activity against Escherichia coli K-12 by two-fold broth microdilution method; format: functional
[8] = system: Mycolicibacterium smegmatis; assay: Antibacterial activity against Mycobacterium smegmatis ATCC 607 after 24 to 48 hrs by two-fold broth microdilution method; format: functional
[9] = system: Mycolicibacterium smegmatis; assay: Antibacterial activity against Mycobacterium smegmatis ATCC 700084 after 24 to 48 hrs by two-fold broth microdilution method; format: functional
[10] = target: T3, 1-deoxy-D-xylulose 5-phosphate reductoisomerase (Mycobacterium tuberculosis) (UniProt P9WNS1); assay: Inhibition of recombinant Mycobacterium tuberculosis Dxr expressed in Escherichia coli BL21 CodonPlus (DE3)-RIL cells using DOXP as substrate assessed as NADPH oxidation at 100 uM by spectrophotometric analysis
T3 sequence (whole entry): T1 sequence (P9WNS1 whole entry)

[11] = target: T4, 1-deoxy-D-xylulose 5-phosphate reductoisomerase (Escherichia coli) (UniProt W8T2T2); assay: Inhibition of recombinant Escherichia coli Dxr expressed in Escherichia coli BL21 CodonPlus (DE3)-RIL cells using DOXP as substrate assessed as NADPH oxidation at 100 uM preincubated for 5 mins with NADPH followed by substrate addition by spectrophotometric analysis
T4 sequence (whole entry): T2 sequence (W8T2T2 whole entry)

Plasmodium falciparum [12] = assay: Inhibition of recombinant Plasmodium falciparum Dxr expressed in Escherichia coli C43(DE3) using DOXP as substrate assessed as NADPH oxidation at 100 uM by spectrophotometric analysis

`CC(CC(=O)N(C)O)CP(=O)(O)O` (centres undefined) gave a pIC50 [1] of 6.69, a pIC50 [2] of 5.15 and an MIC50 (Plasmodium falciparum [3]) of 0.74 µM (≈ 0.156 µg/mL).
In the case of `CN(O)C(=O)CC(CCc1ccccc1)CP(=O)(O)O` (centres undefined), the pIC50 [1] was 4.50, the pIC50 [4] was 5.87 and the MIC50 (Escherichia coli [5]) was > 250 µM. For the same compound, the MIC50 (Escherichia coli [6]) was > 250 µM, the MIC50 (Escherichia coli [7]) was > 250 µM and the MIC50 [8] was > 250 µM. The MIC50 [9] was > 250 µM and the MIC50 (Plasmodium falciparum [3]) was 35.4 µM (≈ 10.7 µg/mL).
With `CN(O)C(=O)CC(CP(=O)(O)O)c1ccc(Cl)cc1` (centres undefined) the inhibition [10] was “inactive”, the inhibition [11] was “inactive” and the MIC50 (Escherichia coli [5]) was > 250 µM. The MIC50 (Escherichia coli [6]) was > 250 µM, the MIC50 (Escherichia coli [7]) was > 250 µM and the MIC50 [8] was > 250 µM. The MIC50 [9] was > 250 µM and the MIC50 (Plasmodium falciparum [3]) was > 64 µM.
`CN(O)C(=O)CC(CCCc1ccccc1)CP(=O)(O)O` (centres undefined) gave a pIC50 [1] of 6.07, a pIC50 [2] of 4.99 and a pIC50 [4] of 6.93. The MIC50 (Escherichia coli [5]) was > 250 µM, the MIC50 (Escherichia coli [6]) was > 250 µM and the MIC50 (Escherichia coli [7]) was > 250 µM. The MIC50 [8] was > 250 µM, the MIC50 [9] was > 250 µM and the MIC50 (Plasmodium falciparum [3]) was 0.43 µM (≈ 0.136 µg/mL).
For `CN(O)C(=O)CC(Cc1ccccc1)CP(=O)(O)O` (centres undefined), the inhibition [11] was “Active”, the inhibition (Plasmodium falciparum [12]) was “Active” and the MIC50 (Plasmodium falciparum [3]) was ≥ 56.8 µM.
With `CN(O)C(=O)CC(CP(=O)(O)O)c1ccccc1` (centres undefined) the inhibition [10] was “inactive”, the inhibition [11] was “inactive” and the pIC50 [4] was 5.48. The MIC50 (Escherichia coli [5]) was > 250 µM, the MIC50 (Escherichia coli [6]) was > 250 µM and the MIC50 (Escherichia coli [7]) was > 250 µM. The MIC50 [8] was > 250 µM, the MIC50 [9] was > 250 µM and the MIC50 (Plasmodium falciparum [3]) was > 64 µM.
`CN(O)C(=O)CCCP(=O)(O)O` showed a pIC50 [1] of 6.80, a pIC50 [2] of 5.94 and an MIC50 (Escherichia coli [5]) of 31.2 µM (≈ 6.16 µg/mL). For the same compound, the MIC50 (Escherichia coli [6]) was 15.6 µM (≈ 3.08 µg/mL), the MIC50 (Escherichia coli [7]) was 31.2 µM (≈ 6.16 µg/mL) and the MIC50 [8] was > 250 µM. The MIC50 [9] was > 250 µM and the MIC50 (Plasmodium falciparum [3]) was 0.26 µM (≈ 0.0513 µg/mL).
With `CC(=O)N(O)CCCP(=O)(O)O` [FR-900098] the MIC50 (Escherichia coli [5]) was 7.8 µM (≈ 1.54 µg/mL), the MIC50 (Escherichia coli [6]) was 62.5 µM (≈ 12.3 µg/mL) and the MIC50 (Escherichia coli [7]) was 15.6 µM (≈ 3.08 µg/mL). For the same compound, the MIC50 [8] was > 250 µM and the MIC50 [9] was > 250 µM.
With `CN(O)C(=O)CC(CP(=O)(O)O)c1ccc(Cl)c(Cl)c1` (centres undefined) the inhibition [10] was “inactive”, the inhibition [11] was “inactive” and the MIC50 (Escherichia coli [5]) was > 250 µM. For the same compound, the MIC50 (Escherichia coli [6]) was > 250 µM, the MIC50 (Escherichia coli [7]) was > 250 µM and the MIC50 [8] was > 250 µM. The MIC50 [9] was > 250 µM and the MIC50 (Plasmodium falciparum [3]) was > 64 µM.
With `Cc1ccc(C(CC(=O)N(C)O)CP(=O)(O)O)cc1` (centres undefined) the inhibition [10] was “inactive”, the inhibition [11] was “inactive” and the pIC50 [4] was 5.03. For the same compound, the MIC50 (Escherichia coli [5]) was > 250 µM, the MIC50 (Escherichia coli [6]) was > 250 µM and the MIC50 (Escherichia coli [7]) was > 250 µM. The MIC50 [8] was > 250 µM, the MIC50 [9] was > 250 µM and the MIC50 (Plasmodium falciparum [3]) was > 64 µM.
In the case of `COc1ccc(C(CC(=O)N(C)O)CP(=O)(O)O)cc1` (centres undefined), the inhibition [10] was “inactive”, the inhibition [11] was “inactive” and the pIC50 [4] was 4.73. For the same compound, the MIC50 (Escherichia coli [5]) was > 250 µM, the MIC50 (Escherichia coli [6]) was > 250 µM and the MIC50 (Escherichia coli [7]) was > 250 µM. For the same compound, the MIC50 [8] was > 250 µM, the MIC50 [9] was > 250 µM and the MIC50 (Plasmodium falciparum [3]) was > 64 µM.
With `CN(O)C(=O)CC(CCCCc1ccccc1)CP(=O)(O)O` (centres undefined) the pIC50 [1] was 5.18, the pIC50 [2] was 3.56 and the pIC50 [4] was 7.16. The MIC50 (Escherichia coli [5]) was > 250 µM, the MIC50 (Escherichia coli [6]) was > 250 µM and the MIC50 (Escherichia coli [7]) was > 250 µM. The MIC50 [8] was > 250 µM, the MIC50 [9] was > 250 µM and the MIC50 (Plasmodium falciparum [3]) was < 0.25 µM.
With `O=CN(O)CCCP(=O)(O)O` [FOSMIDOMYCIN] the pIC50 [4] was 7.44, the MIC50 (Escherichia coli [5]) was 0.98 µM (≈ 0.179 µg/mL) and the MIC50 (Escherichia coli [6]) was 250 µM (≈ 45.8 µg/mL). The MIC50 (Escherichia coli [7]) was 7.8 µM (≈ 1.43 µg/mL), the MIC50 [8] was > 250 µM and the MIC50 [9] was > 250 µM.
